According to PMC6274375, “Two New Pentacyclic Triterpene Saponins from the Leaves of Akebia trifoliata” (Molecules, 2016):

Experiments:
[1] = MTT cytotoxicity assay, A549 cells; format: cell-based; conditions: human, mean ± SD (n = 3)
Method: (§1) Compounds 1–7 were testeded for their cytotoxity against A549 (human lung adenocarcinoma), HeLa (human cervical carcinoma) and HepG2 (human liver hepatocellular carcinoma) cell lines. The three tumor cell lines were obtained from Kunming Institute of Zoology, Chinese Academy of Sciences. The cytotoxic activity of tested chemicals were assayed according to the MTT method using 96 well plates. Briefly, the cells were cultured in RPMI-1640 medium, supplemented with 10% fetal bovine serum in a humidified atmosphere with 5% CO2 at 37 °C. 100 μL adherent cells at the density of 5 × 10^4 cell/mL was seeded into each well of 96-well cell culture plates and incubated in 5% CO2 at 37 °C for 24 h to form a monolayer on the flat bottoms. Then, the supernatant per well was removed and subsequently added with 100 μL fresh medium and 100 μL medium containing a test compound. The plate was then incubated in 5% CO2 at 37 °C. After 72 h, 20 μL of 5 mg/mL MTT in DMSO was added into each well and incubated for 4 h. The supernatant per well was carefully removed and 150 μL DMSO was added. The plate was then vortex shaken for 15 min to dissolve blue formazan crystals. The optical density (OD) of each well was measured on a Genois microplate reader (Tecan GENios, Männedorf, Switzerland) at the wavelength of 570 nm. All experiments were performed in triplicate and adriamycin was used as a positive control. In each experiment, each of the tumor cell lines was exposed to the test compound at concentrations 50, 25, 12.5, 6.25, 3.125, 1.5625 µg/mL. The inhibitory rate of cell growth was calculated according to the following formula: Inhibition rate (%) = (ODcontrol − ODtreated)/ODcontrol × 100%. IC50 values were calculated by SPSS 16.0 statistic software. The values were based on three individual experiments and expressed as means ± standard deviation (SD).

[2] = MTT cytotoxicity assay, HeLa cells; format: cell-based; conditions: human, mean ± SD (n = 3)
Method: as §1

[3] = MTT cytotoxicity assay, HepG2 cells; format: cell-based; conditions: human, mean ± SD (n = 3)
Method: as §1

α-glucosidase = assay: α-Glucosidase inhibition assay (PNPG substrate); format: biochemical; conditions: pH 6.8, 37 °C, read-out: α-glucosidase inhibitory activity IC50
Method: The a-glucosidase inhibitory activity of 1–7 were determined spectrophotometrically in a 96-well microtiter plate based on p-nitrophenyl-α-D-glucopyranoside (PNPG) as a substrate following the method described in literature with slight modifications. In brief, α-glucosidase (20 μL, 0.8 U/mL) and various concentrations (500, 250, 125, 62.5, 31.25, 15.625 µg/mL) of tested compounds (120 μL) in 67 mM phosphate buffer (pH 6.8) were mixed at room temperature for 10 min. Reactions were initiated by addition of 5.0 mM PNPG (20 μL). The reaction mixture was incubated for 15 min at 37 °C in a final volume of 160 μL. Then, 0.2 M Na2CO3 (80 μL) was added to the incubation solution to stop the reaction. The activities were detected in a 96-well plate, and the absorbance was determined at 405 nm (for p-nitrophenol). The negative blank was set by adding phosphate buffer instead of the sample via the same way as the test. […] The blank was set by adding phosphate buffer instead of the α-glucosidase using the same method. Inhibition rate (%) = [(ODnegative control − ODblank) − (ODtest − ODtest blank)]/(ODnegative blank − ODblank) × 100%. IC50 values of the samples were calculated using the Microsoft Office Excel soft.

[4] = MTT cytotoxicity, summary statements over the three cell lines; format: cell-based, human; conditions: human, A549, HeLa and HepG2 cells (range over the three cell lines)
Method: as §1

[5] = tested on: human tumor A549, HeLa and HepG2 cell lines; assay: as above; format: cell-based; conditions: A549, HeLa and HepG2
Method: as §1

[6] = range over A549, HeLa and HepG2 and over both compounds, read-out: Cytotoxicity IC50 values, range over all three cancer cell lines
[7] = range over the three cell lines and over both compounds, as given in abstract, read-out: Cytotoxicity IC50 values, range over A549, HeLa and HepG2

Row | IC50 (α-glucosidase) [µM] | SMILES | IC50 at 72 h [1] [µM] | IC50 at 72 h [2] [µM] | IC50 at 72 h [3] [µM] | IC50 at 72 h [4, 6] [µM] | IC50 at 72 h [4, 7] [µM] | In vitro cytotoxicity, result in words [5]
1 | 47 | CC1(C)CC[C@]2(C(=O)O)CC[C@]3(C)C(=CCC4[C@@]5(C)C[C@@H](O)[C@H](O)[C@@](C)(C=O)C5CC[C@]43C)C2C1 (stereo partly drawn) [Compound 5, 2α,3β-dihydroxy-23-oxo-olean-12-en-28-oic acid] | 30.2 ± 4.55 | 22.7 ± 1.96 | 38 ± 7.57 | 22.7 to 38.1 | 23 to 38 | moderate in vitro cytotoxicity
2 | 220 | C=C1CC[C@]2(C(=O)O)CC[C@]3(C)C(=CCC4[C@@]5(C)C[C@@H](O)[C@H](O)[C@@](C)(C=O)C5CC[C@]43C)C2C1 (stereo partly drawn) [Compound 6, 2α,3β-dihydroxy-23-oxo-30-norolean-12,20 (29)-dien-28-oic acid] | > 100 | > 100 | > 100 |  |  | 
3 | 40 | CC1(C)CC[C@]2(C(=O)O)CC[C@]3(C)C(=CC[C@@H]4[C@@]5(C)C[C@@H](O)[C@H](O)[C@@](C)(CO)[C@@H]5CC[C@]43C)[C@@H]2C1 [Compound 7, arjunolic acid] | 33.6 ± 3.13 | 24.4 ± 1.49 | 38.1 ± 1.63 | 22.7 to 38.1 | 23 to 38 | moderate in vitro cytotoxicity
